Data on eight molecules can be found in US9908899B2 (BIOMARIN PHARMACEUTICAL INC., priority 2011, dated 2018).

Read-outs that look alike come from different tables or passages of the source.

One data set addresses HDAC1 (Homo sapiens (Human), UniProt Q13547). Put plainly: HDAC activity inhibition assay, HDAC1. It is filed as biochemical. How it is done: (§1) The HDAC activity inhibition assay was performed as follows to determine the ability of a test compound to inhibit HDAC enzymatic activity. […] Following pre-incubation, Fluor-de-Lys™ substrate (Enzo Life Sciences, Plymouth Meeting, Pa., BML-KI104-0050) was added to a final concentration of 10 μM and plates were further incubated for 30 minutes at room temperature. […] IC50 values were calculated by using a sigmoidal dose-response (variable slope) equation in GraphPad Prism® 5 for Windows (GraphPad Software, La Jolla, Calif.).

Data set [1] deals with GM 15850(lymphoblastoid cells line) cells. As to the kind of experiment: In-cell deacetylase inhibition assay (DAC assay). The data set is classed as cell-based. The conditions noted are these: GM 15850 cells, 4 h incubation, read-out: 850 DAC (in-cell deacetylase inhibition IC50). Here is the method:
Compound dilutions were made in 100% DMSO followed by parallel dilution in media with 2% DMSO. 10 μl of the compound dilutions were added to the cells to achieve the desired concentrations. The final concentration of DMSO in each well was 0.2%. The cells were incubated for 4 h at 37° C. with 5% CO2. After incubation, the cells were centrifuged down and the supernatant was removed. […] The reaction was stopped after 30 min incubation by addition of 50 μL developer (6 mg/mL trypsin in HDAC assay buffer). The reaction was allowed to develop for 30 min at room temperature and the fluorescence signal was detected using a fluorometer (Spectramax M2, Molecular Devices, Sunnyvale, Calif.) with excitation and emission wavelengths of 360 nm and 470 nm respectively. The data was fitted to a sigmoidal dose response equation with variable slope in GraphPad Prism 5.0 (GraphPad Software, La Jolla, Calif.) to determine IC50. Bottom and top of the curve were fixed to the average fluorescence response of control wells with no cells and cells but no compound respectively.

Another data set has as its target HDAC2 (Homo sapiens (Human), UniProt Q92769). As to the kind of experiment: HDAC activity inhibition assay, HDAC2. It is filed as biochemical. Here is the method:
as §1

In the next data set the target is HDAC3/NcoR2 (Homo sapiens (Human), UniProt O15379). Put plainly: HDAC activity inhibition assay, HDAC3/NcoR2. It is filed as biochemical. How it is done: as §1
In another data set the test system is C57BL/6J male mice. As to the kind of experiment: Long term memory for object recognition (ORM). The data set is classed as in vivo. The settings on record: s.c. 3, 10, 30 mg/kg. How it is done:
C57BL/6J male mice were handled 1-2 min for 5 days and were habituated to the experimental apparatus 5 min a day for 4 consecutive days in the absence of objects. […] 24-h later mice were tested for memory retention (5 min) using the object recognition memory task (ORM), in which a familiar object was replaced with a novel one. All training and testing trials were videotaped and analyzed by individuals blind to the treatment condition and the genotype of subjects. A mouse was scored as exploring an object when its head was oriented toward the object within a distance of 1 cm or when the nose was touching the object. The relative exploration time was recorded and expressed by a discrimination index [DI=(tnovel−tfamiliar)/(tnovel+tfamiliar)×100].

The next data set has as its system Human Hepatocytes. Put plainly: Compound stability in hepatocytes. The settings on record: 5 μM.
A further data set deals with Frataxin (FXN) mRNA. Put plainly: Effect of HDAC inhibitors on frataxin (FXN) mRNA expression in Friedreich's ataxia patient primary lymphocytes. The data set is classed as cell-based, human. The conditions noted are these: Table 4; concentration for 2-fold increase in FXN mRNA. Here is the method: Blood is collected from Friedreich's ataxia patient donors into tubes containing the anti-coagulant EDTA. Primary lymphocytes are isolated using Lymphocyte Separation Medium (MP Biomedicals, Solon, Ohio) following the manufacturer's instructions and including a few modifications made by Repligen. After a final wash in Phosphate Buffered Saline (PBS), the cells are distributed into a 6-well cell culture plate in cell growth medium. The test HDAC inhibitor compound is added to cells in a dose escalating manner (usually concentrations range from 1 to 10 μM) and 0.1% DMSO is added to one well of cells as a no treatment control. Cells are incubated for 48 hours at 37° C. in a CO2 incubator; cell counts are taken using a Countess automated cell counter (Invitrogen, Carlsbad, Calif.). Equivalent numbers of cells for all treatment conditions are pelleted by centrifugation and resuspended in cell lysis buffer. Total RNA is isolated from approximately 1×10^6 primary lymphocytes using a RNeasy Mini Kit (Qiagen, Valencia, Calif.), following the manufacturer's instructions and including an optional on-column DNAse digestion step. The isolation is performed either manually or using the QIAcube (Qiagen, Valencia, Calif.), an instrument that automates much of the isolation procedure. The RNA yield and concentration is determined using a Nanodrop spectrophotometer (Thermo Fisher Scientific, Waltham, Mass.) and depending on the RNA concentration, one of two protocols is used to measure frataxin (FXN) transcript levels. For samples containing at least 15 ng/μL RNA a TaqMan® Probe-based (Applied Biosystems, Carlsbad, Calif.) qRT-PCR method is used, while for samples containing less than 15 ng/μL RNA a SYBR Green qRT-PCR method is used. In the TaqMan® Probe-based method specific primer/probe pairs for FXN and GAPDH are multiplexed in each reaction. In the SYBR Green method FXN and GAPDH are amplified in separate reactions. In both methods each RNA sample is analyzed in triplicate (preferably) or duplicate (minimally) using a one-step qRT-PCR master mix that contains all the components necessary for cDNA synthesis and PCR amplification in a single, continuous reaction. After cycling is complete, MxPro Software (Agilent Technologies, Santa Clara, Calif.) is used to analyze the collected data and determine the relative amount of FXN mRNA compared to a control sample. An adaptive baseline method is used for baseline correction whereby an algorithm automatically selects the appropriate baseline cycles for each well and each dye. An amplification-based threshold is set and the corresponding threshold cycle, or Ct, is obtained for calculating target concentration. The Ct values for each target gene (FXN and GAPDH) for each replicate series are averaged. The amount of FXN (or GAPDH) in the sample is determined as the relative quantity to the calibrator where the calibrator sample is assigned an arbitrary quantity of 1. The following equation is used: Relative quantity to the calibrator=2^−ΔCt where ΔCt=(Ct_gene)unknown−(Ct_gene)calibrator, gene is either FXN or GAPDH, calibrator is a DMSO control sample, and unknown is a HDACi treated sample. The relative quantity of FXN is normalized to cell number and RNA input. Data is reported in Tables 2 and 4 below, where the concentration required for a 2-fold increase in FXN mRNA is reported as A if less than 5 μM, B if between 5 and 10 μM, C if greater than 10 μM.

A short description of data set [2]: Brain penetration studies. The conditions noted are these: Table 4; mice; Cmax(brain)/Cmax(plasma).
Protocol: Test compounds were prepared at either 0.5 mg/ml or 5 mg/ml in 30% hydroxypropyl-β-cyclodextrin, 100 mM sodium acetate pH 5.5, 5% DMSO. C57/BL6/J mice were dosed s.c. at 5 mg/kg or 50 mg/kg, or i.v. at 5 mg/kg. Animals were euthanized at pre-dose, 5, 15, 30 min, 1, 2 and 4 hours post-dose and plasma and brain obtained. Three animals per dose per time points were used. The levels of compound in the plasma and brain were determined by standard LC/MS/MS methods. Brain/plasma ratio (BPR) was calculated as the ratio of the Cmax(brain)/Cmax(plasma).
The mark [3] stands for this setting: Table 1, 2 hours pre-incubation.

Chain of HDAC3/NcoR2 (O15379 whole entry): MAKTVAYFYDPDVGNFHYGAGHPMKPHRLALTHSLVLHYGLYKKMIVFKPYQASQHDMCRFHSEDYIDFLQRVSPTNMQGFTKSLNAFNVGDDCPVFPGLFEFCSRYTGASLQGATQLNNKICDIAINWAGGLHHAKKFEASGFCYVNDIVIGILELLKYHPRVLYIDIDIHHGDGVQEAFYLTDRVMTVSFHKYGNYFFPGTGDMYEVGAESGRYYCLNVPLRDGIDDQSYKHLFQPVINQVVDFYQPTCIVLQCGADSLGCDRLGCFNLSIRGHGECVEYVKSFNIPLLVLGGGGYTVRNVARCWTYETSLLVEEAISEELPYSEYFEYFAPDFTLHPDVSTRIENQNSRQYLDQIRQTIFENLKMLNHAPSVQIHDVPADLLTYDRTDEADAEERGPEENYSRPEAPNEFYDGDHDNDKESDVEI
Chain of HDAC3/NcoR2 (Q9Y618 395-489 partner): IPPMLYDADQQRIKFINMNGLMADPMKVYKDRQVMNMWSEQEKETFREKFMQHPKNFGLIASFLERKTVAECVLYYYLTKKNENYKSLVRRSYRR
Chain of HDAC2 (Q92769 whole entry): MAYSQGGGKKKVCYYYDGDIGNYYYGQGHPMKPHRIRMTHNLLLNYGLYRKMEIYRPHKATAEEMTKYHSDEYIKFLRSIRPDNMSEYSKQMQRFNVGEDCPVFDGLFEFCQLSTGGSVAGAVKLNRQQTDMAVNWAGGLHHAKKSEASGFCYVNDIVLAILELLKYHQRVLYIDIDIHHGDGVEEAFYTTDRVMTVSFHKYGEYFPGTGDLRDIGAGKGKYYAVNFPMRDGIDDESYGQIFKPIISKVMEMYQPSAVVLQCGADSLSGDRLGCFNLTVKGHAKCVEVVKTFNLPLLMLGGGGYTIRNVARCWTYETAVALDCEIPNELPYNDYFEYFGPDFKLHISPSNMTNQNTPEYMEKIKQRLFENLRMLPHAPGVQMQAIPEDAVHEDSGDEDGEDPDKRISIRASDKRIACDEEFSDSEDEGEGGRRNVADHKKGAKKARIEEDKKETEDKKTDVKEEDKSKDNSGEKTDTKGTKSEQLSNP
Chain of HDAC1 (Q13547 whole entry): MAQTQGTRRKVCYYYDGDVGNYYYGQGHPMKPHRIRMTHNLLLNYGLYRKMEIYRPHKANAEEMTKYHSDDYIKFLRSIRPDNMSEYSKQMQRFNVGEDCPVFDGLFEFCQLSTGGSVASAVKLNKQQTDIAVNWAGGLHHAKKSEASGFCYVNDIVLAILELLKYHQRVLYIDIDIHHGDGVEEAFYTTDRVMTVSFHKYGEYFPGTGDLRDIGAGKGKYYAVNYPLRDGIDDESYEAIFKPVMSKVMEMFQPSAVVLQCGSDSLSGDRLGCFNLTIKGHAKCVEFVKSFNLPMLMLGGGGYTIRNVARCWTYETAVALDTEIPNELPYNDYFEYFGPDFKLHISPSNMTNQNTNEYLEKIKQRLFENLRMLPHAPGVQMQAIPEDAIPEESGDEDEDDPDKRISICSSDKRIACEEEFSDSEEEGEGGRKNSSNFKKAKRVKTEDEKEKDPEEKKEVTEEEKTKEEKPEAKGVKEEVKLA
Protocol for Human Hepatocytes: To assess the stability and metabolism of RGFP compounds in hepatocytes. This assay was designed to evaluate the metabolism of RGFP compounds, following their incubation with human, monkey, dog and rat hepatocytes by monitoring either parent drug disappearance or metabolite appearance using HPLC.
Procedure: • Turn on the water-bath heater to 37° C. • Take out the KHB buffer and make sure it is at room temp before use • Prepare 2.5 mM concentration of RGFP compound in DMSO stock • Add 10 μL of above DMSO stock to 2490 μL KHB buffer; final concentration of RGFP compound will be 10 μM • Pre-warm 45 ml InVitro HT Medium to 37° C. in a sterile 50 ml conical tube • Add 1.0 mL Torpedo Antibiotic Mix per 45 mL InVitro HT medium • Transfer 13 mL of warm HT medium with Antibiotic Mix into a 15 mL conical tube. • Carefully remove the hepatocyte vials from liquid nitrogen (liquid phase). • Immediately immerse the vial into a 37° C. water bath. Shake gently until the ice melts entirely. […] Loosen the cell pellet by gently swirling the centrifuge tube • Transfer 100 μL of above solution to a different tube and add 900 μL of KHB buffer to count the cells • Determine the total cell count and the number of viable cells using the Trypan Blue exclusion method • Once you obtain the cell count, multiply the number by 10 (attributing to the dilution factor) • Now add required volume of KHB buffer to the tube containing hepatocytes such that the final count will be 2 million cells/mL • Dispense 50 μL of 2 million cells/ml to a 96 well plate and then add 50 μl of DMSO stock to respective wells (such that, the concentration of RGFP compounds is 5 μM and number of cells are 100000 in each well) • Place the plates on a shaker in a 37° C. incubator with 5% CO2 • Separate plates for each time point are advisable (Time points: 0 h, 1 h, 2 h, and 6 h) • After each time point, add 100 μL of quenching solution. • Quenching solution is an acetonitrile solution containing RGFP531 (10 μM) internal standard, 0.1% formic acid and phenylglyoxol (400 μM). The formic acid and phenylglyoxal is used for the identification and quantification of OPD as mentioned above. • Pipette up and down a few times to ensure a complete stop of reaction • Transfer all the solution into a 1.5 ml tube, vortex thoroughly, and centrifuge at 14000 RPM at 4° C. for 5 minutes to precipitate cell debris
Transfer the 150 μL of supernatant to vials for analysis using HPLC

What is called IC50 is the concentration that inhibits the measured activity by half. With `Cn1cc(/C=C/C(=O)Nc2cc(F)ccc2N)cn1` [C3], the half-maximal inhibitory concentration (IC50) is 1000 to 5000 nM against HDAC1, above 20000 nM in data set [1], 1000 to 5000 nM against HDAC2 and below 1000 nM against HDAC3/NcoR2.
As to `Nc1cc(F)ccc1NC(=O)/C=C/c1cnn(C/C=C/c2ccccc2)c1` [D2, (E)-N-(2-amino-4-fluorophenyl)-3-(1-cinnamyl-1H-pyrazol-4-yl)acrylamide], the “effect of dose on long-term memory for object recognition” value in the data set on C57BL/6J male mice is recorded as “no effect of dose”.
Regarding `Nc1ccccc1NC(=O)c1ccc(C=C2CN(CC3CC3)C2)cc1` [F12], the IC50 at HDAC1 (Table 4), against HDAC2 (Table 4) and against HDAC3/NcoR2 (Table 4) was below 1000 nM throughout. The “% left 6 h Hum” value with Human Hepatocytes is listed as “A (50%<A)”. In addition, in the data set with Frataxin (FXN) mRNA, the “F × n > 2X (uM)” value is listed as “A (A if less than 5 μM)”. In addition, the BPR result in data set [2] was “A (A is greater than 1)”.
As for `CC(C)(C)CN1CCC(=Cc2ccc(C(=O)Nc3ccccc3N)cc2)CC1` [F14], the concentration for half-maximal inhibition (IC50) at HDAC1 (Table 4), against HDAC2 (Table 4) and at HDAC3/NcoR2 (Table 4) was below 1000 nM each time. Moreover, the “% left 6 h Hum” value in the data set with Human Hepatocytes is on record as “C (30%>C>10%)”. In addition, the “F × n > 2X (uM)” value in the data set on Frataxin (FXN) mRNA is reported as “A (A if less than 5 μM)”. Moreover, the BPR entry in data set [2] is “A (A is greater than 1)”.
`CC(C)(O)CN1CCC(=Cc2ccc(C(=O)Nc3ccccc3N)cc2)CC1` [F15]: the IC50 on HDAC1 (Table 4), at HDAC2 (Table 4) and on HDAC3/NcoR2 (Table 4) was below 1000 nM each time. In addition, the “% left 6 h Hum” value in the data set with Human Hepatocytes was “A (50%<A)”. The “F × n > 2X (uM)” value in the data set with Frataxin (FXN) mRNA was “A (A if less than 5 μM)”. The BPR result in data set [2] is “A (A is greater than 1)”.
Turning to `CN1CCC(Cn2cc(/C=C/C(=O)Nc3ccccc3N)cn2)CC1` [G1, (E)-N-(2-aminophenyl)-3-(1-((1-methylpiperidin-4-yl)methyl)-1H-pyrazol-4-yl)acrylamide], the IC50 against HDAC1 (setting [3]) is 1000 to 5000 nM; in data set [1] (Homo sapiens, GM15850), 1000 to 5000 nM; against HDAC2 (setting [3]) it was 1000 to 5000 nM; against HDAC3/NcoR2 (setting [3]), below 1000 nM.
With `Cc1nn(C/C=C/c2ccccc2)c(C)c1/C=C/C(=O)Nc1ccccc1N` [G2, (E)-N-(2-aminophenyl)-3-(1-cinnamyl-3,5-dimethyl-1H-pyrazol-4-yl)acrylamide], the IC50 on HDAC1 (setting [3]) was 1000 to 5000 nM; in data set [1] (Homo sapiens, GM15850), 10000 to 20000 nM; on HDAC2 (setting [3]), 1000 to 5000 nM; against HDAC3/NcoR2 (setting [3]), below 1000 nM.
`Cc1ccc(C(=O)NCCCCCC(=O)Nc2ccc(F)cc2N)cc1` [RGFP 136, reference compound]: the “effect of dose on long-term memory for object recognition” value in the data set on C57BL/6J male mice was “Dose dependent effects”.
